This passage reports Kd results from paper PMC4580985, “Calcium ions open a selectivity filter gate during activation of the MthK potassium channel” (Nature Communications, 2015).

Molecules are shown by their SMILES.

This assay deals with T1, MthK (Methanothermobacter thermautotrophicus, UniProt O27564).
T1 construct: MthK channel with pore and cytosolic gating ring (RCK), purified in decyl maltoside, Superdex 200, reconstituted in DOPC:POPG 3:1 liposomes
Nature of the assay: stopped-flow Tl+ flux (ANTS quench) in MthK liposomes, blocker equilibration time course. The note with it: read-out: KD^ap. It is filed as biochemical. The source says: stopped-flow Tl+ flux (ANTS quench) in MthK liposomes, blocker equilibration time course on MthK

In the case of `CCCC[N+](CCCC)(CCCC)Cc1ccc(Br)cc1` [Br-bTBA, 4-bromobenzyltributylammonium bromide], the Kd (commonly a measure of binding affinity in units of concentration) amounted to 2600 ± 400 nM.

`CCCCC[N+](CCCCC)(CCCCC)CCCCC` [TPeA]: the dissociation constant (Kd) came to 2100 ± 200 nM.

For the molecule `CCCC[N+](CCCC)(CCCC)Cc1ccc(C(=O)c2ccccc2)cc1` [bbTBA, N-(4-[benzoyl]benzyl)-N,N,N-tributylammonium], the Kd was 700 ± 200 nM.
